Experimental data reported in patent US20220273759A1, “PHARMACEUTICAL ASSOCIATION FOR CONVERTING A NEOPLASTIC CELL INTO A NON-NEOPLASTIC CELL AND USES THEREOF” (HISTIDE AG, priority 2015, published 2022).
Where no end group is shown, it is not given here.

How the values were obtained:
[1] = test system: human rhabdosarcoma cells; test: Recoding via quantification of pRB and P53, rhabdosarcoma cells; type: cell-based; details: Table 6, peptide in association with PET
Experimental: (§1) The cells were first fixed for 20 min with 4% paraformaldehyde/PBS at 4° C. After fixation, the cells were permeabilized in PBS containing 1% Triton X-100 for 15 min. Protein immunofluorescent visualization was performed by first treating the cells with 1% (v/v) specific monoclonal antibodies for 1 hour at 37° C. Then the samples were incubated with Alexa Fluor® 568 or 647 (F(ab′)2 fragment of IgG(H+L)) during 30 min at room temperature. The cell nuclei were counterstained in 20 ng/mL DAPI for 10 min at room temperature.
(§2) For this type of quantification the freeware image analysis ImageJ® software was used. The raw image was first converted to an 8-bit file, and then the unsharp mask feature was used (settings 1:0.2) to remove the image background (rolling ball radius 10). After smoothing, the resulting image, which appears similar to the original photomicrograph but with minimal background, was then converted to a binary image by setting a threshold. Threshold values were determined empirically by selecting a setting, which gave the most accurate binary image for a subset of randomly selected photomicrographs. The cell area was determined by manual delineation on raw fluorescent images. Total contact area and mean contact area per cell were calculated by “analyse particules” in ImageJ®. A minimum of 50 cells per condition were analyzed. […]

[2] = test system: mesenchymal chondrosarcoma cells; test: Recoding via quantification of pRB and P53, chondrosarcoma cells; type: cell-based; details: Table 6, peptide in association with PET
Experimental: as §1, §2

[3] = test system: neoplastic cells (osteosarcoma cells); test: Immunofluorescence visualization of neoplastic cells cultured on a polymer scaffold covalently modified with a GFR-binding compound and a RGD peptide; type: cell-based; details: polymer scaffold covalently modified with a mixture of GFR-binding compound and RGD peptide; after 24 hours of culture
Experimental: (b) Immunofluorescence visualization of a neoplastic cell (osteosarcoma cells) after silencing integrins α3β1 by using shRNAs, after 24 hours of culture on a polymer scaffold covalently grafted with RGD peptides. […] The actin filaments were immunostained by using Alexa 488-phalloidin. The focal adhesions were represented by immunostaining with anti-vinculin. The nucleus was stained with DAPI and is represented by a circle in the center of the cell. Scale bar: 5 μm. (c) Immunofluorescence visualization of neoplastic cells cultured on a polymer scaffold covalently modified with a mixture comprising a GFR-binding compound as defined herein (SEQ ID NO: 2) and a RGD peptide, after 24 hours of culture. Scale bar: 500 μm. […] The actin filaments were immunostained by using Alexa 488-phalloidin. The focal adhesions were represented by immunostaining with anti-vinculin. The nucleus was stained with DAPI and is represented by a circle in the center of the cell.

[4] = Stability of non-covalent association (release of FITC-labelled GFR-binding compound from carrier); type: physicochemical; details: after 3, 7 or 10 days
Experimental: Non-covalent associations of the bioactive carriers were performed under atmospheric conditions (air) at room temperature (about 22° C.). The non-covalent association was carried out using a mixture of GFR-binding compound of SEQ ID NO: 9 (concentration of 1×10^−3 M) with the apatite ceramics or a mixture of GFR-binding compound of SEQ ID NO: 10 (concentration of 1×10^−3 M) with the type-I collagen sponge. The non-covalent pharmaceutical associations were characterized by covalently associating fluorescent GFR-binding compounds of SEQ ID NO: 9 and 10 (covalently bound to fluorescein isothiocyanate (FITC), FIG. 1).

Vinculin = Vinculin gene expression by RT-PCR in osteosarcoma cells; type: cell-based; details: PET carrier, after 24 hours
Experimental: (§3) After 24 hours of culture, total RNA was extracted by using the RNeasy total RNA kit (Qiagen®) according to the manufacturer's instructions. Purified total RNA was used as a template in order to make cDNA by a reverse transcription reaction (Gibco Brl®) with random primers (Invitrogen®). The cDNA was then used as a template for a real-time PCR amplification in the presence of SYBR green reagents (Bio-Rad®) by using a thermocycler (iCycler, Biorad®). Data were analyzed with the iCycler IQ™® software and compared by the ΔΔCt method. Briefly, the mean Ct value of the target gene was normalized to its averaged Ct values of the housekeeping gene (GAPDH) to give a ΔCt value, which was then normalized to a control sample to obtain a ΔΔCt value. The results were obtained from two series of experiments performed in triplicate.
(§4) Neoplastic cells (in this example osteosarcoma cells) were cultured on pharmaceutical associations comprising PET as a bioactive carrier and one of GFR-binding compounds of SEQ ID NO: 12, 19, 30 or 39. After 24 hours, the Paxillin and Vinculin gene expression decreased as shown by RT-PCR (FIG. 9).

Paxillin = Paxillin gene expression by RT-PCR in osteosarcoma cells; type: cell-based; details: PET carrier, after 24 hours
Experimental: as §3, §4

[5] = test system: Cyclin D (Cyclin D1, Cyclin D2 and Cyclin D3); test: Cyclin D profile by RT-PCR in osteosarcoma cells; type: cell-based; details: PET carrier, after the first 30 min of cell culture
Excerpt: There are many ways to test, measure and represent the inhibitory effect of a given substance on the gene or protein expression of cyclins D, but for the purpose of the present disclosure, and for the avoidance of any doubts, the inhibition values of a given pharmaceutical association or composition as defined herein is a measure of the gene expression of cyclins D as provided by RT-PCR. It is to be understood that the values of the gene expression of cyclins D disclosed herein correspond to the total gene expression of all cyclins D present in the tested cell i.e. D1, D2 and D3 as known at the date of the present disclosure.
as §3
Neoplastic cells (in this example osteosarcoma cells) were cultured on pharmaceutical associations comprising PET as a bioactive carrier and one of GFR-binding compounds of SEQ ID NO: 12, 19, 30 or 39. […]

[6] = Adhesion checkpoint activation, western blot of PDK1 in osteosarcoma cells; type: cell-based; details: PET carrier, after 24 hours
Experimental: (§5) After 24 hours of culture, cells were permeabilized (10% SDS, 25 mM NaCl, 10 nM pepstatin and 10 nM leupeptin in distilled water and loading buffer), boiled for 10 minutes and resolved by reducing PAGE (Invitrogen). Proteins were transferred onto nitrocellulose, blocked, and labeled with HRP-conjugated antibodies (Invitrogen). […] Phosphor-Smad1/5/8 was blotted by treating the nitrocellulose with monoclonal anti-p-Smad1/5/8 (Santa Cruz Biotechnology). For all of the experiments the western blot was performed in triplicate, along with an additional blot for actin and coomassie blue staining to ensure constant protein load among samples.
(§6) Neoplastic cells (in this example osteosarcoma cells) were cultured on pharmaceutical associations comprising PET as a bioactive carrier and one of GFR-binding compounds of SEQ ID NO: 12, 19, 30 or 39. The main signaling pathways include: Ras/MAP kinase, FAK/Src kinase and PIP2 which are decreased after 24 hours as shown by western blot quantifications (FIG. 8). […] Finally, a decrease of 3-phosphoinositide-dependent protein kinase 1 (PDK1) protein expression was also was observed (FIG. 8C).

Ras/MAP kinase = test: Adhesion checkpoint activation, western blot of ERK phosphorylation in osteosarcoma cells; type: cell-based; details: PET carrier, after 24 hours
Experimental: as §5, §6

| Substance | P53 (%) [1] [%] | pRB (%) [1] [%] | P53 (%) [2] [%] | pRB (%) [2] [%] | other results |
| --- | --- | --- | --- | --- | --- |
| AASKASSSRVELRSVKIAKV (Non-cyclic GFR-binding peptide) [SEQ ID NO: 210] | 42 | 22 |  |  |  |
| AASKASSTPTDLNAISTLYF (Non-cyclic GFR-binding peptide) [SEQ ID NO: 216] | 27 | 19 |  |  |  |
| GIPEPSSAPTRLEPISMLYL (Non-cyclic GFR-binding peptide) [SEQ ID NO: 222] |  |  | 36 | 8 |  |
| GIPEPSSVSQEESSLSTLFF (Non-cyclic GFR-binding peptide) [SEQ ID NO: 214] | 31 | 18 |  |  |  |
| GIPEPSSVSQELSATSMLYY (Non-cyclic GFR-binding peptide) [SEQ ID NO: 218] |  |  | 28 | 17 |  |
| KIPKASSSRVRLSSLSTLFF (Non-cyclic GFR-binding peptide) [SEQ ID NO: 215] | 30 | 19 |  |  |  |
| KIPKASSTPTRLSPISMLFI (Non-cyclic GFR-binding peptide) [SEQ ID NO: 221] |  |  | 37 | 21 |  |
| KIPKASSTQVGQSATSILYY (Non-cyclic GFR-binding peptide) [SEQ ID NO: 219] |  |  | 31 | 14 |  |
| KIPKASSTQVRLRPVQIRKI (Non-cyclic GFR-binding peptide) [SEQ ID NO: 211] | 42 | 19 |  |  |  |
| KIPKASSVSQQLEPISTLYL (Non-cyclic GFR-binding peptide) [SEQ ID NO: 223] |  |  | 29 | 9 |  |
| RVPSTSSTQVDLNAISVLYF (Non-cyclic GFR-binding peptide) [SEQ ID NO: 217] | 24 | 18 |  |  |  |
| RVPSTSSTQVKMSAISMLYL (Non-cyclic GFR-binding peptide) [SEQ ID NO: 213] | 26 | 12 |  |  |  |
| SEQ ID NO: 2: GFR-binding compound as defined herein, covalently grafted on a polymer scaffold in a mixture with a RGD peptide (YVPKPSSAPTKLNAISTLYF; also: covalently grafted on a polymer scaffold) |  |  |  |  | morphology of neoplastic cells (immunofluorescence: actin, vinculin, DAPI) [3]: Spheroid-like structures of neoplastic cells become predominant |
| SEQ ID NO: 9: GFR-binding compound of the sequence listing, non-covalently associated with apatite ceramics; sequence not shown in this part (AVPKASSAPTKLSAISMLYL; Non-cyclic GFR-binding peptide) |  |  |  |  | release of GFR-binding compounds from the carrier [4]: no significant release |
| SEQ ID NO: 10: GFR-binding compound of the sequence listing, non-covalently associated with type-I collagen sponge; sequence not shown in this part (KVGKASSVPTKLSAISTLYL; Non-cyclic GFR-binding peptide) |  |  |  |  | release of GFR-binding compounds from the carrier [4]: no significant release |
| SEQ ID NO: 12: GFR-binding compound of the sequence listing, tested on PET as bioactive carrier; sequence not shown in this part (KVPKASSVPTELSAISTLYL; Non-cyclic GFR-binding peptide) |  |  |  |  | Vinculin gene expression (Vinculin): decreased; Paxillin gene expression (Paxillin): decreased; Cyclin D gene expression (arithmetic mean of Cyclin D1, D2 and D3) [5]: decreased; 3-phosphoinositide-dependent protein kinase 1 (PDK1) protein expression [6]: decrease; phosphorylation at Thr202 and Tyr204 on ERK (Ras/MAP kinase): absence of phosphorylation |
| SEQ ID NO: 19: GFR-binding compound of the sequence listing, tested on PET as bioactive carrier; sequence not shown in this part (RKIPKAGGVPTELSAISTLYL; Non-cyclic GFR-binding peptide) |  |  |  |  | Vinculin gene expression (Vinculin): decreased; Paxillin gene expression (Paxillin): decreased; Cyclin D gene expression (arithmetic mean of Cyclin D1, D2 and D3) [5]: decreased; 3-phosphoinositide-dependent protein kinase 1 (PDK1) protein expression [6]: decrease; phosphorylation at Thr202 and Tyr204 on ERK (Ras/MAP kinase): absence of phosphorylation |
| SEQ ID NO: 30: GFR-binding compound of the sequence listing, tested on PET as bioactive carrier; sequence not shown in this part (KIPKASSVPTELEPLPIVYY; Non-cyclic GFR-binding peptide) |  |  |  |  | Vinculin gene expression (Vinculin): decreased; Paxillin gene expression (Paxillin): decreased; Cyclin D gene expression (arithmetic mean of Cyclin D1, D2 and D3) [5]: decreased; 3-phosphoinositide-dependent protein kinase 1 (PDK1) protein expression [6]: decrease; phosphorylation at Thr202 and Tyr204 on ERK (Ras/MAP kinase): absence of phosphorylation |
| SEQ ID NO: 39: GFR-binding compound of the sequence listing, tested on PET as bioactive carrier; sequence not shown in this part (KIPKASSVPTELEPLPILYF; Non-cyclic GFR-binding peptide) |  |  |  |  | Vinculin gene expression (Vinculin): decreased; Paxillin gene expression (Paxillin): decreased; Cyclin D gene expression (arithmetic mean of Cyclin D1, D2 and D3) [5]: decreased; 3-phosphoinositide-dependent protein kinase 1 (PDK1) protein expression [6]: decrease; phosphorylation at Thr202 and Tyr204 on ERK (Ras/MAP kinase): absence of phosphorylation |
| STPPTSSAPVGQSPISMLYI (Non-cyclic GFR-binding peptide) [SEQ ID NO: 220] |  |  | 34 | 15 |  |
| STPPTSSSRVQLSAISMLYL (Non-cyclic GFR-binding peptide) [SEQ ID NO: 212] | 27 | 11 |  |  |  |
| STPPTSSVPTEVSPINTLYF (Non-cyclic GFR-binding peptide) [SEQ ID NO: 224] |  |  | 26 | 13 |  |
